Laboratory results reported in patent publication US10494602B1, “Functional astrocytes and cortical neurons from induced pluripotent stem cells and methods of use thereof” (The Board of Trustees of the Leland Stanford Junior …, priority 2015, dated 2019).
“Also recorded” adds a separate entry of the source.

How the values were obtained:
[1] = molecular target: element-binding protein (CBP) (Homo sapiens, UniProt Q92793); details: cited from earlier work
[2] = system: Wnt processing and secretion; details: cell-free assay; read-out: 1050, inhibition of Wnt processing and secretion; cited from earlier work
[3] = system: Wnt-stimulated cellular responses; details: cited from earlier work
PORCN [4] = details: read-out: EC50, Porcn inhibition; cited from earlier work
Wnt signaling = details: TM3 cells; read-out: IC50, inhibition of Wnt signaling; cited from earlier work
BMP signaling = details: cited from earlier work
[5] = system: voltage-gated Na+ channels; type: cell-based, human
TNKS2 = molecular target: T1, TNKS2 (Homo sapiens, UniProt Q9H2K2); details: cited from earlier work
T1 sequence (Q9H2K2 1-1166): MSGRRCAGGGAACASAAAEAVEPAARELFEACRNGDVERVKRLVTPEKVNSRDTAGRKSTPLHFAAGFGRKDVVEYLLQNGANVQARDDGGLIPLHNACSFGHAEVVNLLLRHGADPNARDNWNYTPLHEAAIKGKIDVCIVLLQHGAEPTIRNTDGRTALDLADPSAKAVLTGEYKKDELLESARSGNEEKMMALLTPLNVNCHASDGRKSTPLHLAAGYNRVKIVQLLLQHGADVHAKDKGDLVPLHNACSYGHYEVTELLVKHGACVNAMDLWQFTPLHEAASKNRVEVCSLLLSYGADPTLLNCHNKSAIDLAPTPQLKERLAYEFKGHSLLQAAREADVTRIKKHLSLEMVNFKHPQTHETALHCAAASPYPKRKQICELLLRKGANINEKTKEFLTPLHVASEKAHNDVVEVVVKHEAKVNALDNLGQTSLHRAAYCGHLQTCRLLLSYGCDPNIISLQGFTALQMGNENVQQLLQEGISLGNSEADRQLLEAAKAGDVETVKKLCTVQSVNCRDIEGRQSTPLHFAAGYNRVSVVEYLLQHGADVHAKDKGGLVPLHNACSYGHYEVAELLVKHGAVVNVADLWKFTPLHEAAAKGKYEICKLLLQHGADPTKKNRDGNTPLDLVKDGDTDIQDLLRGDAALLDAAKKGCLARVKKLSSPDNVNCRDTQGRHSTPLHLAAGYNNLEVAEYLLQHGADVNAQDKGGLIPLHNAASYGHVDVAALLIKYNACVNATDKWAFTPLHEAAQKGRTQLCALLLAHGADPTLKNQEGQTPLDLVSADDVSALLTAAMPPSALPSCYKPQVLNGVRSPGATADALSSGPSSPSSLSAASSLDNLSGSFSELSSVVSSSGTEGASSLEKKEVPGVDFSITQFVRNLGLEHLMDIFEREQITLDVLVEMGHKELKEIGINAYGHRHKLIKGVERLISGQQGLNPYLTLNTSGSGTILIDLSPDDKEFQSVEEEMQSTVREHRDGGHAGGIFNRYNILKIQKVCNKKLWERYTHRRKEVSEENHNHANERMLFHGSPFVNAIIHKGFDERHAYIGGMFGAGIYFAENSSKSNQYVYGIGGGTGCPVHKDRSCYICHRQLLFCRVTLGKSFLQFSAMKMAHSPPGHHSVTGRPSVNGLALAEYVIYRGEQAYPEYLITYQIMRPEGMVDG

[6] = system: spontaneous synaptic activity (EPSCs) of neurons in hCS slices; test: Spontaneous EPSCs in acute hCS slice preparation (whole cell recording); type: cell-based, human; details: kynurenic acid 1 mM bath application; n=6 cells, P=0.0008
Procedure: hCS were removed from Neurobasal-B27 media, quickly fixed to a block of 4% agarose, and covered in ice-cold oxygenated (95% 02 and 5% CO2) ACSF containing 126 mM NaCl, 2.5 mM KCl, 1.25 mM NaH2PO4, 2 mM MgCl2, 2 mM CaCl2), 26 mM NaHCO3and 10 mM glucose. 250 μm thick slices were cut using a Leica VT1200 vibrating microtome. After slicing, sections were moved to continuously oxygenated warm (˜32° C.) ACSF. Slices were incubated in warm ACSF for at least one hour prior to recording.
Whole cell patch clamp recordings were made at 22-25° C. Slices were superfused at a rate of 3 ml/min. Patch-clamp recordings were made using a MultiClamp 700A amplifier with Clampex 10.3 software. 3-5 MO borosilicate glass recording electrodes were filled with internal solution containing 120 mM potassium gluconate, 11 mM KCl, 1 mM MgCl2, 1 mM CaCl2, 10 mM HEPES, 1 mM EGTA, pH adjusted to 7.4 with KOH (290 mOsm). To determine if EPSCs recorded in voltage clamp are glutamate dependent, the glutamate receptor blocker kynurenic acid (1 mM) was added to the bath solution following at minimum 5 min of baseline recording. Evoked responses were produced by extracellular monopolar tungsten electrode placed 100-300 μm from the whole cell recording. […]

PORCN [7] = details: HEK293 cells; read-out: IC50, Wnt3A-mediated activation of a multimerized TCF-binding site driving luciferase; cited from earlier work

element-binding protein (CBP), sequence (Q92793 whole entry): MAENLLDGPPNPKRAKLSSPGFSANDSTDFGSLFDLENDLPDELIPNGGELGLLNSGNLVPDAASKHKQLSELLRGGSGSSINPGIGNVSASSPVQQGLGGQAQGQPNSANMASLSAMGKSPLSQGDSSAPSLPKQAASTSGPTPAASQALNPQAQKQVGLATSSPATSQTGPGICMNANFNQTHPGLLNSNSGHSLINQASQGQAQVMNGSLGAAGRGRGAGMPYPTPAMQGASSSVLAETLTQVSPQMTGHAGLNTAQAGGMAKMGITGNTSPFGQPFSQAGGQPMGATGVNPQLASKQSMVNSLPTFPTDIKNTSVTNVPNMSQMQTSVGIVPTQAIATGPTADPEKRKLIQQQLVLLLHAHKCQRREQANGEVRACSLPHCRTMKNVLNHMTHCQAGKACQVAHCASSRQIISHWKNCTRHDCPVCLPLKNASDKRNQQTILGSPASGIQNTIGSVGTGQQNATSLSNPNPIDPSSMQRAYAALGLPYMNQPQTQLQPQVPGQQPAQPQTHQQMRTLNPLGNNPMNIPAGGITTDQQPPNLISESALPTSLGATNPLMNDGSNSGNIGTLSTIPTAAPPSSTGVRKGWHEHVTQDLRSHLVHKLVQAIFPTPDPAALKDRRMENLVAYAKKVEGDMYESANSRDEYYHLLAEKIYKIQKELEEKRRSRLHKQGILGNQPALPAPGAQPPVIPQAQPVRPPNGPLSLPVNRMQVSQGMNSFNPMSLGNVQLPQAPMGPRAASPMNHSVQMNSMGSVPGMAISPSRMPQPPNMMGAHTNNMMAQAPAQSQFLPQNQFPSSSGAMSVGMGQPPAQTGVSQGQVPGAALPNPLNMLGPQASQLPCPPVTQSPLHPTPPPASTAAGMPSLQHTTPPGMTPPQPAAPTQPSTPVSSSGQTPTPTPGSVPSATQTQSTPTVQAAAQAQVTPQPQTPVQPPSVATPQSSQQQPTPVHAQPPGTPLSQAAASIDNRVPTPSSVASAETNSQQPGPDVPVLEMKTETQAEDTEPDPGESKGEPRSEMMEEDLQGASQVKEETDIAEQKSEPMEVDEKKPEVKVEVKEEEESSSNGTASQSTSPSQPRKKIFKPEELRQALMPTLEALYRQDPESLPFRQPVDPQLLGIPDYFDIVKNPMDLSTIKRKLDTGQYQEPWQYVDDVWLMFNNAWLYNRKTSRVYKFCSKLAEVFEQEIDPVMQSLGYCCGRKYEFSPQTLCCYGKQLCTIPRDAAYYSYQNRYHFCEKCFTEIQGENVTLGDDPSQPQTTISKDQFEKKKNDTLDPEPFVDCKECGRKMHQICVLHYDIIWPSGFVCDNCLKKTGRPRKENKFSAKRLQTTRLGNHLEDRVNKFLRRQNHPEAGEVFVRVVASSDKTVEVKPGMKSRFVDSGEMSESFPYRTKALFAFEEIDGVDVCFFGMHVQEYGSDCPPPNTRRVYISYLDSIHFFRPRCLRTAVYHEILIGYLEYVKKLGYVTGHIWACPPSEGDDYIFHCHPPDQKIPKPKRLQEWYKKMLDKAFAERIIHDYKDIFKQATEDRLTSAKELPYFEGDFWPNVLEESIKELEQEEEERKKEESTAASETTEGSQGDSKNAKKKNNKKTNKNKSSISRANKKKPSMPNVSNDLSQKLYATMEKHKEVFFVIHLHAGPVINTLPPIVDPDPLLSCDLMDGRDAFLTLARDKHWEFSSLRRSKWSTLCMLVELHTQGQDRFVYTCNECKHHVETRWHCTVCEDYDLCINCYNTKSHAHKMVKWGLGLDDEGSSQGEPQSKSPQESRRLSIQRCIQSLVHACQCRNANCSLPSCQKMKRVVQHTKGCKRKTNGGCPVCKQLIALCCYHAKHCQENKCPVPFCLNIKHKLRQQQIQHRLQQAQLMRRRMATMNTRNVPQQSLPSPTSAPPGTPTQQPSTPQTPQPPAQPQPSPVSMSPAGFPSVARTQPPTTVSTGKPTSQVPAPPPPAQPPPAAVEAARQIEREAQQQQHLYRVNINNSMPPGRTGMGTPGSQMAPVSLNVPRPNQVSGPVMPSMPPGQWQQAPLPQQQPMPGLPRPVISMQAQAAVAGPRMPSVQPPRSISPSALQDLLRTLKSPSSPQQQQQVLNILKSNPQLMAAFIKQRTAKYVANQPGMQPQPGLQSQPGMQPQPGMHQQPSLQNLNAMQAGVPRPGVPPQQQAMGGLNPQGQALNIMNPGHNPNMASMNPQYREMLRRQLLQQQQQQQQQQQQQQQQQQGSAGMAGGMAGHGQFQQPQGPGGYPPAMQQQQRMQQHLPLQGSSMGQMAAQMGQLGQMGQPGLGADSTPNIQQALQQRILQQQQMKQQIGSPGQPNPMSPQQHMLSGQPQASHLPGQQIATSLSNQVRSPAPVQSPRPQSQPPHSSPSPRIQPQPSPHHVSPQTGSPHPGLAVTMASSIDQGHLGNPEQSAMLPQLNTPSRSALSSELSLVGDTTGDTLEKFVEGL

O=C1[C@H](Cc2ccc(O)cc2)N2C(=O)CCN(C(=O)NCc3ccccc3)[C@H]2CN1Cc1cccc2ccccc12 [ICG-001]
IC50 [1]: 3000 nM

Cc1ccc2nc(NC(=O)CSc3nc4c(c(=O)n3-c3ccccc3)SCC4)sc2c1 [IWP-2]
IC50 [2]: 27 nM | effect against Wnt-stimulated cellular responses [3]: no effect

O=C(CSc1nc2c(c(=O)n1-c1ccccc1)SCC2)Nc1ccc(-c2ccccc2)cn1 [IWP-L6]
EC50 (PORCN [4]): 0.5 nM

Cc1cc(-c2ncc(CC(=O)Nc3ccc(-c4cnccn4)cn3)cc2C)ccn1 [LGK-974]
IC50 (Wnt signaling): 0.4 nM

NC(=O)c1ccc(-c2nc(-c3ccc4c(c3)OCO4)c(-c3ccccn3)[nH]2)cc1 [SB-431542]
effect on BMP signaling (BMP signaling): no effect

NC1=N[C@H](O)[C@H]2[C@H]3O[C@]4(O)O[C@@H]([C@@H](O)[C@@]2(N1)[C@@H]4O)[C@]3(O)CO [TTX, tetrodotoxin]
block of transient inward voltage-gated Na+ current [5]: blocks

COc1ccc(-n2c(SCCCN3C(=O)c4cccc5cccc(c45)C3=O)nnc2-c2ccncc2)cc1 [WIKI4]
IC50 (TNKS2): 15 nM

O=C(O)c1cc(=O)c2ccccc2[nH]1 [kynurenic acid]
spontaneous synaptic activity (EPSCs) in sliced hCS [6]: significantly reduced; also recorded: blocked

Wnt-059 (C59)
IC50 (PORCN [7]): 0.074 nM
